Data as given in patent publication US8377945B2, “Small molecule inhibitors of spleen tyrosine kinase (SYK)” (Rigel Pharmaceuticals Inc., priority 2009, dated 2013).

Biological target: T1, Syk kinase (Homo sapiens, UniProt P43405)
T1 construct: purchased Millipore 14-314
Experiment: ELISA-based Syk kinase assay (phosphorylation of HS1 peptide substrate by isolated Syk kinase)
Assay type: biochemical
Conditions: IC50 of Syk kinase inhibition; 2 μM ATP, 2 μM peptide substrate
Method: Compounds were tested for the ability to inhibit Syk kinase catalyzed phosphorylation of a peptide substrate in an assay with isolated Syk kinase.
An assay was carried out in a Costar white 96 well plate (Fisher Scientific, Cat No. 07-200-591) coated overnight with 0.01 mg/ml Neutravidin (Pierce, 100 μl/well) at 4° C. Neutravidin pre-coated 96 well plates were blocked with 2% BSA in PBST buffer for at least 1 hour before starting the assay at room temperature. Serially diluted compound stock solution containing a subject compound was prepared separately in DMSO solution starting from 300 μM and 2 μl of this diluted compound (3% DMSO final concentration) was added directly to neutravidin coated assay plate containing 55.5 μl/well of kinase reaction buffer composed of 20 mM HEPES, pH 7.4, 5 mM MgCl2, 2 mM MnCl2, 1 mM DTT, 0.01% Tween 20 pre-mixed with ATP and kinase substrate (HS1 peptide). Reaction was initiated by adding of 2.5 μl/well Syk kinase (Millipore, Cat No. 14-314) resulting in a final reaction volume of 60 μl and then the reaction was allowed to continue for 30 minutes at room temperature. Final enzyme reaction conditions were 20 mM HEPES, pH 7.4, 5 mM MgCl2, 2 mM MnCl2, 1 mM DTT, 0.01% Tween 20, 0.25 ng Syk, 2 μM ATP, 2 μM peptide substrate (Biotin-EQEDEPEGDYEEVLE-CONH2, SynPep Corporation). After completing the reaction, assay plate was washed three times with PBST and incubated for 1 hour at room temperature with 100 μl/well of phosphopeptide detection antibody solution prepared by mixing 1-1000 diluted mouse anti-pTyr monoclonal antibody (Cell Signal Technology, Cat No. 9411) and 1-1000 diluted goat HRP-conjugated anti-mouse IgG (Jackson Immunoresearch, Cat. No. 115-035-003). Before developing the plate with supersignal ELISA pico chemiluminescent substrate (Pierce), plate was washed three times again with PBST and were read on a SpectraMax M5 microplate reader (Moleculear Devices).

| SMILES | IC50 |
| --- | --- |
| N#Cc1cccc(Nc2c(-c3ccc4c(c3)NC(=O)CO4)[nH]c3c(C#N)cnn23)c1 [Compound 9] | 3 to 25 µM |
| COc1cc(-c2[nH]c3c(C#N)cnn3c2NC(C)(C)CC(C)(C)C)cc(OC)c1OC [Compound 11] | > 25 µM |
| COc1cc(-c2[nH]c3c(C#N)cnn3c2N)cc(OC)c1OC [Compound 17] | 3 to 25 µM |
| COc1cc(-c2[nH]c3c(C#N)cnn3c2NC(=O)c2ccc(C(F)(F)F)c(F)c2)cc(OC)c1OC [Compound 18] | 3 to 25 µM |
| COc1cc(-c2[nH]c3c(C#N)cnn3c2NC(=O)c2ccccc2)cc(OC)c1OC [Compound 19] | 3 to 25 µM |
| COc1cc(-c2[nH]c3c(C#N)cnn3c2NC(=O)c2ccc(F)cc2)cc(OC)c1OC [Compound 20] | 3 to 25 µM |
| COc1cccc(C(=O)Nc2c(-c3cc(OC)c(OC)c(OC)c3)[nH]c3c(C#N)cnn23)c1 [Compound 21] | > 25 µM |
| COc1cc(-c2[nH]c3c(C#N)cnn3c2Nc2ccc(Cl)c(Cl)c2)cc(OC)c1OC [Compound 22] | 0.51 to 2.99 µM |
| COc1cc(Nc2c(-c3ccc4cc[nH]c4c3)[nH]c3c(C#N)cnn23)cc(OC)c1OC [Compound 26] | 3 to 25 µM |
| N#Cc1cnn2c(Nc3ccc(N4CCOCC4)cc3)c(-c3ccc4cc[nH]c4c3)[nH]c12 [Compound 27] | 0.51 to 2.99 µM |
| COc1cc(Nc2c(-c3cc(OC)c(OC)c(OC)c3)[nH]c3c(C#N)cnn23)cc(OC)c1OC [Compound 29] | 3 to 25 µM |
| CC(=O)Nc1cccc(Nc2c(-c3ccc4c(c3)NC(=O)CO4)[nH]c3c(C#N)cnn23)c1 [Compound 31] | 0.51 to 2.99 µM |
| CC(=O)Nc1ccc(-c2[nH]c3c(C#N)cnn3c2Nc2cccc(NC(C)=O)c2)cc1 [Compound 34] | 3 to 25 µM |
| COc1cccc(CNc2c(-c3ccc4c(c3)NC(=O)CO4)[nH]c3c(C#N)cnn23)c1 [Compound 35] | 3 to 25 µM |
| COc1ccc(Nc2c(-c3ccc(F)cc3F)[nH]c3c(C#N)cnn23)cc1OC [Compound 36] | 3 to 25 µM |
| COc1ccc(Nc2c(-c3ccc(F)c(F)c3)[nH]c3c(C#N)cnn23)cc1OC [Compound 37] | 0.51 to 2.99 µM |
| COc1cc(-c2[nH]c3c(C#N)cnn3c2NC(=O)c2nnc(-c3ccccc3)o2)cc(OC)c1OC [Compound 39] | 3 to 25 µM |
| COc1ccc(CCNc2c(-c3ccc4c(c3)NC(=O)CO4)[nH]c3c(C#N)cnn23)cc1OC [Compound 40] | 3 to 25 µM |
| COc1ccc(CCNc2c(-c3cc(OC)c(OC)c(OC)c3)[nH]c3c(C#N)cnn23)cc1OC [Compound 41] | > 25 µM |
| COc1ccc(CC(=O)Nc2c(-c3cc(OC)c(OC)c(OC)c3)[nH]c3c(C#N)cnn23)cc1OC [Compound 42] | > 25 µM |

| SMILES | IC50 |
| --- | --- |
| COc1cccc(CNc2c(-c3cc(OC)c(OC)c(OC)c3)[nH]c3c(C#N)cnn23)c1 [Compound 46] | 3 to 25 µM |
| COc1cc(-c2[nH]c3c(C#N)cnn3c2NC(=O)CBr)cc(OC)c1OC [Compound 53] | > 25 µM |
| COc1cc(-c2[nH]c3c(C#N)cnn3c2NC(=O)COc2ccccc2)cc(OC)c1OC [Compound 54] | > 25 µM |
| COc1ccc(Nc2c(Cc3ccccc3)[nH]c3c(C#N)cnn23)cc1OC [Compound 55] | 3 to 25 µM |
| COc1ccc(Nc2c(-c3cc(F)c(F)c(F)c3)[nH]c3c(C#N)cnn23)cc1OC [Compound 57] | 3 to 25 µM |
| COc1ccc(Nc2c(-c3cc(Cl)c(OC)c(OC)c3)[nH]c3c(C#N)cnn23)cc1OC [Compound 58] | 0.51 to 2.99 µM |
| COc1cc(-c2[nH]c3c(C#N)cnn3c2Nc2ccc(OC)c(OC)c2)ccc1F [Compound 59] | 0.51 to 2.99 µM |
| N#Cc1cnn2c(Nc3ccc4c(c3)OCCO4)c(-c3ccc4cc[nH]c4c3)[nH]c12 [Compound 60] | 3 to 25 µM |
| COc1ccc2c(-c3[nH]c4c(C#N)cnn4c3Nc3ccc(NC(C)=O)cc3)c[nH]c2c1 [Compound 62] | 3 to 25 µM |
| CC(=O)Nc1ccc(Nc2c(-c3ccc4c(c3)OCCO4)[nH]c3c(C#N)cnn23)cc1 [Compound 63] | 3 to 25 µM |
| COc1cc(-c2[nH]c3c(C#N)cnn3c2Nc2ccc(CNC(=O)OC(C)(C)C)cc2)cc(OC)c1OC [Compound 65] | 0.51 to 2.99 µM |
| COc1cc(-c2[nH]c3c(C#N)cnn3c2Nc2ccc(CN)cc2)cc(OC)c1OC [Compound 66] | 3 to 25 µM |
| COC(=O)c1cccc(Nc2c(-c3cc(OC)c(OC)c(OC)c3)[nH]c3c(C#N)cnn23)c1 [Compound 67] | 0.51 to 2.99 µM |
| CC(=O)Nc1ccc(Nc2c(-c3ccc4c(c3)NC(=O)CO4)[nH]c3c(C#N)cnn23)cc1 [Compound 68] | 3 to 25 µM |
| COc1ccc(-c2[nH]c3c(C#N)cnn3c2Nc2ccc(NC(C)=O)cc2)cc1OC [Compound 69] | 0.51 to 2.99 µM |
| COc1cc(-c2[nH]c3c(C#N)cnn3c2Nc2ccc3c(c2)OCCO3)cc(O)c1OC [Compound 70] | 0.51 to 2.99 µM |
| COC(=O)c1ccc(Nc2c(-c3cc(O)c(OC)c(OC)c3)[nH]c3c(C#N)cnn23)cc1 [Compound 71] | 0.51 to 2.99 µM |
| COc1cc(-c2[nH]c3c(C#N)cnn3c2NCC2CCN(C(=O)OC(C)(C)C)CC2)cc(OC)c1OC [Compound 73] | 3 to 25 µM |
| COc1cc(-c2[nH]c3c(C#N)cnn3c2NCC2CCNCC2)cc(OC)c1OC [Compound 74] | 3 to 25 µM |
| COc1cc(-c2[nH]c3c(C#N)cnn3c2Nc2ccc(N3CCC(N4CCCC4)CC3)c(F)c2)cc(OC)c1OC [Compound 75] | 0.51 to 2.99 µM |

| SMILES | IC50 |
| --- | --- |
| COC(=O)[C@H](Cc1ccccc1)Nc1c(-c2cc(OC)c(OC)c(OC)c2)[nH]c2c(C#N)cnn12 [Compound 76] | 3 to 25 µM |
| COC(=O)c1cccc(Nc2c(-c3ccc(OC)c(OC)c3)[nH]c3c(C#N)cnn23)c1 [Compound 77] | 0.51 to 2.99 µM |
| COC(=O)c1cccc(Nc2c(-c3cc(Cl)c(OC)c(OC)c3)[nH]c3c(C#N)cnn23)c1 [Compound 78] | 3 to 25 µM |
| COc1cc(Nc2c(-c3ccc(N4CCOCC4)cc3)[nH]c3c(C#N)cnn23)cc(OC)c1OC [Compound 79] | 3 to 25 µM |
| N#Cc1cnn2c(Nc3ccc(Br)cc3)c(-c3ccc(N4CCOCC4)cc3)[nH]c12 [Compound 80] | 0.51 to 2.99 µM |
| COc1cc(Nc2c(-c3ccc(C(N)=O)cc3)[nH]c3c(C#N)cnn23)cc(OC)c1OC [Compound 81] | 3 to 25 µM |
| COc1ccc(-n2cc(C#N)c3nc(-c4cc(OC)c(OC)c(OC)c4)c(N)n32)cc1 [Compound 82] | 3 to 25 µM |
| COC(=O)COc1ccc(-c2[nH]c3c(C#N)cnn3c2Nc2cccc(C(=O)OC)c2)cc1OC [Compound 84] | 0.51 to 2.99 µM |
| COC(=O)c1cccc(Nc2c(-c3ccc(OC)c(OCC(=O)O)c3)[nH]c3c(C#N)cnn23)c1 [Compound 86] | 0.51 to 2.99 µM |
| COc1cc(-c2[nH]c3c(C#N)cnn3c2Nc2cccc(OC(F)(F)F)c2)cc(OC)c1OC [Compound 110] | 0.51 to 2.99 µM |
| COc1ccc(Nc2c(-c3cc(OC)c(OC)c(OC)c3)[nH]c3c(C#N)cnn23)cc1OC1CCCC1 [Compound 115] | 0.51 to 2.99 µM |
| COc1cc(-c2[nH]c3c(C#N)cnn3c2Nc2ccc(C)c(F)c2)cc(OC)c1OC [Compound 121] | 0.51 to 2.99 µM |
| COC(=O)COc1ccc(-c2[nH]c3c(C#N)cnn3c2Nc2ccc(F)c(OC)c2)cc1OC [Compound 123] | 0.51 to 2.99 µM |
| COc1cc(Nc2c(-c3cc(OC)c(OC)c(OC)c3)[nH]c3c(C#N)cnn23)ccc1OC1CCCC1 [Compound 128] | 0.51 to 2.99 µM |
| COc1cc(Nc2c(-c3cc(OC)c(OC)c(OC)c3)[nH]c3c(C#N)cnn23)ccc1OCCN1CCCC1 [Compound 129] | 0.51 to 2.99 µM |
| COc1cc(-c2[nH]c3c(C#N)cnn3c2Nc2ccc(F)c(C(F)(F)F)c2)cc(OC)c1OC [Compound 130] | 0.51 to 2.99 µM |
| COc1cc(-c2[nH]c3c(C#N)cnn3c2Nc2ccc(OC(F)(F)F)cc2)cc(OC)c1OC [Compound 131] | 0.51 to 2.99 µM |
| COc1cc(-c2[nH]c3c(C#N)cnn3c2Nc2ccc(N3CCCC3)c(F)c2)cc(OC)c1OC [Compound 134] | 0.51 to 2.99 µM |
